Data on seven compounds can be found in patent US7696243B2, “Pyrrolidin-2-one derivatives for use as DP1 receptor agonists” (Merck Serono, S.A., priority 2004, dated 2010).

SMILES strings stand for the structures. pEC50, pKi: −log10 of the molar value. Entries after “also recorded” stand apart in the source; their conditions may differ.

The target of data set [1] is T1, h-DP1 (Homo sapiens, UniProt Q13258).
T1 construct: expressed in transfected cells; host or cells: HEK293-EBNA
T1 sequence (Q13258 1-359): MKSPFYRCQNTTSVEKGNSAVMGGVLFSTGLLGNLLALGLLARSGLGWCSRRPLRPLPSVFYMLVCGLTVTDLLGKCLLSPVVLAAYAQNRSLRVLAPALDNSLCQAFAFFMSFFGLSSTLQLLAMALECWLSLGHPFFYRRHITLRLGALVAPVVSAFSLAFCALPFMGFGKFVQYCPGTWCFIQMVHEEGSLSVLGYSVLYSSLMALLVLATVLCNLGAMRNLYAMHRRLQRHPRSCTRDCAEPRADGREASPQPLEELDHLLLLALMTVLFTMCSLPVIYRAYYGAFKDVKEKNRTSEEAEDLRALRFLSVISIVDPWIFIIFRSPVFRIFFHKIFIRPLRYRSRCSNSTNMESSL
Put plainly: Whole cell second messenger (cAMP) assay on cells expressing DP1. Type of data set: cell-based. The procedure:
Whole cell second messenger assays measuring stimulation (EP2, EP4, DP1, DP2 and IP in HEK 293(ebna) cells) or inhibition (EP3 in human erythroleukemia (HEL) cells) of intracellular cAMP accumulation or mobilization of intracellular calcium (EP1, FP and TP in HEK 293(ebna) cells stably transfected with apo-aequorin) are performed to determine whether receptor ligands are agonists or antagonists. For cAMP assays, cells are harvested and resuspended in HBSS containing 25 mM HEPES, pH 7.4. Incubations contain 100 μM RO-20174 (phosphodiesterase type IV inhibitor, available from Biomol) and, in the case of the EP3 inhibition assay only, 15 μM forskolin to stimulate cAMP production.
Samples are incubated at 37° C. for 10 min, the reaction is terminated and cAMP levels are then measured. For calcium mobilization assays, cells are charged with the co-factors reduced glutathione and coelenterazine, harvested and resuspended in Ham's F12 medium. Calcium mobilization is measured by monitoring luminescence provoked by calcium binding to the intracellular photoprotein aequorin. Ligands are added in dimethylsulfoxide which is kept constant at 1% (v/v) in all incubations.
For agonists, second messenger responses are expressed as a function of ligand concentration and both EC50 values and the maximum response as compared to a prostanoid standard are calculated. For antagonists, the ability of a ligand to inhibit an agonist response is determined by Schild analysis and both KB and slope values are calculated.
In another exemplary protocol, HEK293-EBNA cells transfected with the appropriate receptors are seeded in 96 well opaque plate (Costar #3917) at 4×10^4 cells per well in 100 μl of culture medium (D-MEM/F12 supplemented with 10% FBS, […] L-glutamine, and 250 μg/ml of hygromycin; all from GibcoBRL) and incubated at 37° C. After overnight incubation, the medium was removed from each well and replaced with 45 μl of assay medium consisted of phenol red free D-MEM/F-12, 0.1% BSA (GibcoBRL) and 0.1 mM 3 isobutyl-1-methyl-xanthine (Sigma). After 15 minutes of incubation at 37° C., 16-16-dimethyl PGE-2 or compounds at desired concentrations in 20 μl of assay medium were added to cells and further incubated at 37° C. for 1 hour. Total cAMP (intra- and extracellular) was measured by using a cAMP-screen ELISA System (Tropix #CS1000).

The subject of data set [2] is human penile cavernosal tissue strips. In words: Organ bath: relaxation of human penile cavernosal tissue strips after contraction with phenylephrine. Here is the method:
Human tissue procurement. Cavernosal tissue is obtained from patients undergoing penile prosthesis implantation surgery for treatment of erectile dysfunction. In the operating room, biopsies of the corpora cavernosa are immediately placed in chilled (4° C.) physiologic salt solution and transported to the laboratory. Tissue strips, measuring approximately 3 mm×3 mm×10 mm, are cut and prepared for organ bath studies.
Preparation of compound stock solutions and dose responses. PGE1 (Cayman Chemical Co., Ann Arbor, Mich.) is stored at −20° C. in solid form until the day of use. Stock solutions are made by adding 1 ml of 70% DMSO to a vial containing 1 mg of PGE1. Compounds of the invention are dissolved in 1 ml of 70% DMSO, divided into 100 μl aliquots and stored at −20° C. until use. For dose responses in organ baths, stock solutions of PGE1 and compounds of the invention are diluted with 70% DMSO to make the highest concentration and then serially diluted with 2% DMSO for all other doses. In a typical dose response curve, the concentration of DMSO is checked to remain below […] in the 25 ml bath and to not exceed 0.5% at the highest dose.
Organ bath studies. Human or rabbit cavernosal tissue strips are mounted onto a fixed support with silk ties and attached to a tension transducer (model FT03; GrassTelefactor, Astro-Med, Inc. West Warwick, R.I.) with a rigid metal wire. After mounting, tissue strips are immersed in 25 ml baths of physiologic salt solution (PSS; 118.3 mM NaCl, 4.7 mM KCl, 0.6 mMMgSO4, 1.2 mMKH2PO4, 2.5 mMCaCl2, 25 mMNaHCO3, 0.026 mM CaNa2EDTA, 11.1 mM glucose). The solution is gassed with 95% […]/5% CO2 to attain a pH of 7.4 and the temperature is maintained at 37° C. All tissue strips are treated with 3 μM indomethacin to inhibit endogenous prostanoid production and minimize spontaneous contractile activity. The corpus cavernosum tissue is stretched incrementally and the optimal resting isometric tension for contraction is determined. After every 3-4 stretches (1 g tension/stretch), the tissue is contracted with 1 μM phenylephrine. When the amplitude of the phenylephrine-induced contraction is within 10% of the previous contraction, that tension is considered optimal for isometric contraction. All tissue strips are extensively washed with fresh PSS. Tissue strips are then contracted with 1 μM phenylephrine. After stable tone is achieved, tissue strips are exposed to increasing concentrations of PGE1 or compounds of the invention.
Data analysis. At the end of each experiment, all tissue strips are treated with 10 μM papaverine and 10 μM nitroprusside to induce maximal relaxation (100%). The total amount of relaxatory response over the range of drug concentrations tested is determined by the area under the plotted curves. EC50 values are calculated using Prism software (GraphPad, San Diego, Calif.). For final analysis of data, relaxation parameters are compared using ANOVA. If the ANOVA p-value is less than 0.05, paired post-test comparisons is carried out using the Tukey-Kramer test.

The target of data set [3] is T1, h-DP1. In words: DP1 receptor binding assay (SPA, receptor membranes). Here is the method:
(§1) HEK 293(ebna) cells or other cells stably transfected with the appropriate receptor are maintained in culture, harvested and membranes are prepared by differential centrifugation, following lysis of the cells in the presence of protease inhibitors, for use in receptor binding assays.
(§2) Prostanoid receptor binding assays are performed in 10 mM MES/KOH (pH 6.0) (EPs, FP and TP) or 10 mM HEPES/KOH (pH 7.4) (DP and IP), containing 1 mM EDTA, 10 mM divalent cation and the appropriate radioligand for the given receptor. The reaction is initiated by addition of membrane protein. Typically, the ligands are added in a solvent such as dimethylsulfoxide which is kept constant at 1% (v/v) in all incubations. Non-specific binding is determined in the presence of 1 μM of the corresponding non-radioactive prostanoid. Incubations are conducted for 60 min at room temperature or 30° C. and terminated by rapid filtration. Specific binding is calculated by subtracting non-specific binding from total binding. The residual specific binding at each ligand concentration is calculated and expressed as a function of ligand concentration in order to construct sigmoidal concentration-response curves for determination of ligand affinity.
(§3) In another protocol, compounds of the invention are tested in DP1 receptor binding assay of the following protocol. A mixture containing 20 μg of DP1 receptor membranes, 0.5 mg of wheat germ agglutinin coated PVT-SPA beads, plus or minus a test compound of the invention (25 μl per well) or 10 μM of cold PGE2 at 1% DMSO and 20 nM radiolabeled ligand for the receptor (e.g., tritiated-PGE2) in assay buffer containing 25 mM MES, 10 mM MgCl2, 1 mM EDTA, pH 6.0 are incubated in Corning 3600 plates on a plate shaker for 2 hrs at room temperature. Binding of the radiolabeled ligand binding is evaluated by counting the plates on the top count using the 3H SPA dpm2 program. % Binding and Ki value for inhibitors are calculated based on the one site competition parameter using the Graphpad® prism program. Such an assay may be modified by employing the different receptors and their specific ligands to assess the activity of the compounds of the present invention against such receptors. Using such an assay, the DP1 Ki values for a number of exemplary compounds of the present invention were calculated and are shown in Table 1.

The target in another data set is T2, h-DP2 (Homo sapiens, UniProt Q9Y5Y4).
T2 construct: expressed in transfected cells; host or cells: HEK 293(ebna) cells or other stably transfected cells; membranes
T2 sequence (Q9Y5Y4 1-395): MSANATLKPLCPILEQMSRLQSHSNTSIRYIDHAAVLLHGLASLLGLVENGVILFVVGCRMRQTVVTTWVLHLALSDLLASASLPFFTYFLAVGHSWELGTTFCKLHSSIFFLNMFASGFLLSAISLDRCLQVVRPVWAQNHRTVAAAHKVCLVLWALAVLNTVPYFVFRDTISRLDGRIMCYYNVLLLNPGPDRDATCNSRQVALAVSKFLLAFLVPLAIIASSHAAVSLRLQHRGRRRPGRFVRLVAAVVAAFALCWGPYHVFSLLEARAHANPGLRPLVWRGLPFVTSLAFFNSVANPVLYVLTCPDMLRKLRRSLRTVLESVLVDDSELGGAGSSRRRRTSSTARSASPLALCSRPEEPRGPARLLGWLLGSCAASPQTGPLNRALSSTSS
Put plainly: Prostanoid receptor binding assay, DP2. The settings on record: n = 2. Here is the method:
as §1, §2, §3

The next data set has as its system rabbits. In words: In vivo intracavernosal injection, erectile response (ICP/SAP). The settings on record: rabbit. Here is the method:
DP agonists were solubilized in 40% propylene glycol and administered by intracavernosal injection to deliver the indicated dose in 0.1 ml total volume. Since penile intracavernosal pressure (ICP) is ultimately limited by the systemic arterial pressure (SAP), all erectile responses were normalized by calculating the ration of ICP/SAP.

The mark [4] stands for this setting: after contraction with phenylephrine.

In the case of `O=C(O)CCCCCCC1C(=O)NC(=O)N1CCC(O)C1CCCCC1` (stereo not shown) [BW245C, reference compound], the pEC50 (as a rule, −log10 of the EC50, conventionally taken in molar units) on h-DP1 [1] is 10.51; in data set [2] (setting [4]) it was 7.23.

Consider `O=C(O)CCCCCC[C@H]1CCC(=O)N1CC[C@@H](O)C1CCCCC1` [Example 3, 7-{(2S)-1-[(3R)-3-cyclohexyl-3-hydroxypropyl]-5-oxopyrrolidin-2-yl}heptanoic acid], for which the pKi (commonly the negative decadic logarithm of the Ki, by convention in mol/L) on h-DP1 [3] is 8.74; at h-DP2, below 5.00. Besides, the pEC50 at h-DP1 [1] is 10.43.

For the compound `O=C(O)c1ccc(CCC[C@H]2CCC(=O)N2CC[C@@H](O)C2CCCCC2)cc1` [Example 1, 4-(3-(2S)-1-[(3R)-3-cyclohexyl-3-hydroxypropyl]-5-oxotetrahydro-1H-2-pyrrolylpropyl)benzoic acid], on h-DP1 [3], the pKi is 8.62. In addition, on h-DP2, the pKi was below 5.00. Moreover, the Systemic blood pressure result with rabbits (any dose) is “no overt changes”. Moreover, in the data set with rabbits (intracavernosal), the Arterial pressure entry was “remained constant”, the “Duration of transient episodes of penile tumescence” value lay in the range of 1 to 3 min and the “ICP/SAP (peak response or AUC) compared to vehicle” value is listed as “dose-dependant increases”. Besides, in the data set with rabbits (intracavernosal, 5 μg, single animals), the “Penile response at highest dose” value is “repeated and transient episodes of spontaneous penile tumescence; also recorded: penile resistance arteries were fully dilated”. Further, the “Penile tumescence after intracavernosal injection” value with rabbits (intracavernosal, 40% propylene glycol) is “sustained periods of penile tumescence or transient episodes”. This compound gave a pEC50 in data set [2] (Homo sapiens, after contraction with phenylephrine) of 7.54. Also, in data set [2] (setting [4]), the “Relaxation of human penile cavernosal tissue strips (in words)” value was “dose-dependent relaxation”. Moreover, the “Extent of relaxation (maximal effect) versus BW245C” value in data set [2] (human cavernosal tissue) was “greater”.

On to `O=C(O)CCCCCC[C@H]1CCC(=O)N1CCC(O)C1CCCCC1` (stereo in doubt) [Example 4, 7-{(2S)-1-[(3R)-3-cyclohexyl-3-hydroxypropyl]-5-oxopyrrolidin-2-yl}heptanoic acid], for which the pKi on h-DP1 [3] was 7.33; at h-DP2 it was below 5.00. Also, the pEC50 at h-DP1 [1] was 8.86.

`CCCCC[C@H](O)/C=C/[C@H]1[C@H](O)CC(=O)[C@@H]1CCCCCCC(=O)O` [PGE1]: the pEC50 in data set [2] (setting [4]) was 6.68.

The compound `CCCCC[C@H](O)/C=C/[C@H]1C(=O)C[C@H](O)[C@@H]1C/C=C\CCCC(=O)O` [PGD2] had a pKi on h-DP1 [3] of 8.39. The pEC50 (at h-DP1 [1]; in data set [2] (setting [4])) was 9.52 throughout. For the same compound, the “Effect at concentrations higher than 0.3 μM” value in data set [2] (human cavernosal tissue) was “caused contraction”. The “Concentration through which dose-dependent relaxation was seen” value in data set [2] (human cavernosal tissue, contraction at higher concentration) was at most 0.3 µM.

With `O=C(O)c1ccc(CCC[C@H]2CCC(=O)N2CC[C@H](O)C2CCCCC2)cc1` [Example 2, 4-(3-(2S)-1-[(3S)-3-cyclohexyl-3-hydroxypropyl]-5-oxotetrahydro-1H-2-pyrrolylpropyl)benzoic acid], the pKi on h-DP1 [3] is 7.98; at h-DP2, below 5.00. This compound showed a pEC50 on h-DP1 [1] of 9.15.
